Data taken from US8492559B2, “Substituted indole compounds” (Gruenenthal GmbH, priority 2009, dated 2013).

target: T1, B1R receptor of the rat (rB1R) (Rattus norvegicus, UniProt P97583); assay: Functional investigation on the bradykinin 1 receptor (B1R), FLIPR Ca2+ assay, rB1R cells; format: cell-based; details: 10 μM test substance; CHO K1 cells with rat B1R; agonist Des-Arg9 bradykinin; % of maximum achievable inhibition
T1 construct: expressed in transfected cells; host or cells: CHO K1 cells
T1 sequence (P97583 1-337): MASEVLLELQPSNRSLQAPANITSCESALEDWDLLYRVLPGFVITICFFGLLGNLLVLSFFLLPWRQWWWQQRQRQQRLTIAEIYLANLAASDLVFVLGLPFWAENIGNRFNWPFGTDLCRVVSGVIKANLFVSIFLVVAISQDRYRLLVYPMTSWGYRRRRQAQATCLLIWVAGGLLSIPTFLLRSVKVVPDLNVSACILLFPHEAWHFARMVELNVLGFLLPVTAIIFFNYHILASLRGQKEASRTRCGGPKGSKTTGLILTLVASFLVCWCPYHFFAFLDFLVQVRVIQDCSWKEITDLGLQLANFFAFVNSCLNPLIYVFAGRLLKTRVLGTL
Method: The indication in % activation is based on the Ca^2+ signal after addition of Lys-Des-[…] bradykinin (0.5 nM) or Des-[…] bradykinin (100 nM). Antagonists lead to a suppression of the Ca^2+ influx following administration of the agonist. The % inhibition in comparison with the maximum achievable inhibition is indicated. […] According to this assay, the Ca^2+ inflow through the channel is quantified with the aid of a Ca^2+-sensitive dye (Fluo-4 type, Molecular Probes Europe BV, Leiden, Netherlands) in a fluorescent imaging plate reader (FLIPR, Molecular Devices, Sunnyvale, USA). […] For functional investigations these cells are plated-out onto black 96-well plates with a clear base (BD Biosciences, Heidelberg, Germany or Greiner, Frickenhausen, Germany) in a density of 20,000-35,000 cells/well. Overnight the cells are incubated at 37° C. and 5% CO2 in culture medium (hB1R cells: Ham's Nutrient Mixture F12, Gibco Invitrogen GmbH, Karlsruhe, Germany or DMEM, Sigma-Aldrich, Taufkirchen, Germany; rB1R cells: D-MEM/F12, Gibco Invitrogen, Karlsruhe, Germany) with 10 vol. % FBS (foetal bovine serum, Gibco Invitrogen GmbH, Karlsruhe, Germany or PAN Biotech GmbH, Aidenbach, Germany). On the following day the cells are loaded with 2.13 μM Fluo-4 (Molecular Probes Europe BV, Leiden, Netherlands) in HBSS buffer (Hank's buffered saline solution, Gibco Invitrogen GmbH, Karlsruhe, Germany) with 2.5 mM probenecid (Sigma-Aldrich, Taufkirchen, Germany) and 10 mM HEPES (Sigma-Aldrich, Taufkirchen, Germany) for 60 min at 37° C. […] Sigma-Aldrich, Taufkirchen, Germany), 5.6 mM glucose and 0.05% gelatine (Merck KGaA, Darmstadt, Germany) is added. After a further incubation of 20 minutes at room temperature, the plates are inserted into the FLIPR for Ca^2+ measurement. Alternatively they are washed with buffer A (15 mM HEPES, 80 mM NaCl, 5 mM KCl, 1.2 mM CaCl2, 0.7 mM MgSO4, 2 g/l glucose, 2.5 mM probenecid) and loaded with buffer A with added 2.5 μM Fluo-4 and 0.025% Pluronic F127 (Sigma-Aldrich, Taufkirchen, Germany). The cells are then washed twice with buffer A and incubated for 30 minutes with buffer A, which additionally contains 0.05% BSA and 0.05% gelatine, at room temperature and then used for Ca^2+ measurement in the FLIPR. The Ca^2+-dependent fluorescence is measured here before and after addition of substances (λex=488 nm, λem=540 nm). The quantification is performed by measuring the highest fluorescence intensity (FC, fluorescence counts) over time. The FLIPR protocol comprises two additions of substance. […] Lys-Des-[…] bradykinin>=50 nM; rB1R: […] Antagonists lead to a suppression of the Ca^2+ inflow. The % inhibition in comparison with the maximum achievable inhibition is calculated. The substances are added in varying concentrations in order to determine the IC50 value. Double or triple determinations (n=2 or n=3) are performed and these are repeated in at least one further independent experiment (N>=2).

B1R antagonism, rat [10 μM] % inhibition	SMILES
99%	COc1cc(C)c(S(=O)(=O)Nc2ccc3ccn(CC(=O)N4CCN(CC5CCN(C)CC5)CC4)c3c2)c(C)c1 [G_CC-4, 4-Methoxy-2,6-dimethyl-N-[1-[2-[4-[(1-methyl-piperdin-4-yl)-methyl]-piperazin-1-yl]-2-oxo-ethyl]-1H-indol-6-yl]-benzenesulfonic acid amide]
100%	COc1cc(C)c(S(=O)(=O)Nc2cccc3ccn(CC(=O)N4CCN(CC5CCN(C)CC5)CC4)c23)c(C)c1 [G_CC-7, 4-Methoxy-2,6-dimethyl-N-[1-[2-[4-[(1-methyl-piperdin-4-yl)-methyl]-piperazin-1-yl]-2-oxo-ethyl]-1H-indol-7-yl]-benzenesulfonic acid amide]

same assay, conditions: 10 μM test substance; CHO K1 cells with rat B1R; agonist Des-Arg9 bradykinin; % of maximum achievable inhibition; 10 µM

B1R antagonism, rat [10 μM] % inhibition	SMILES
90%	COc1cc(C)c(S(=O)(=O)Nc2cccc3ccn(CC(=O)N4CCC(Oc5ccncc5)CC4)c23)c(C)c1 [Compound G-03, 4-Methoxy-2,6-dimethyl-N-[1-[2-oxo-2-(4-pyridin-4-yloxy-piperidin-1-yl)-ethyl]-1H-indol-7-yl]-benzenesulfonic acid amide]

same assay, conditions: CHO-K1, 10 μM test substance; CHO K1 cells with rat B1R; agonist Des-Arg9 bradykinin; % of maximum achievable inhibition; read-out: B1R antagonism, rat [10 μM] % inhibition

SMILES	inhibition at 10 µM
COc1cc(C)c(S(=O)(=O)Nc2ccc3ccn(CC(=O)N4CCN(C5CCN(C)CC5)CC4)c3c2)c(C)c1 [G_CC-1, 4-Methoxy-2,6-dimethyl-N-[1-[2-[4-(1-methyl-piperidin-4-yl)-piperazin-1-yl]-2-oxo-ethyl]-1H-indol-6-yl]-benzenesulfonic acid amide]	62%
COc1cc(C)c(S(=O)(=O)Nc2ccc3ccn(CC(=O)N4CCN(c5ncccn5)CC4)c3c2)c(C)c1 [G_CC-3, 4-Methoxy-2,6-dimethyl-N-[1-[2-oxo-2-(4-pyrimidin-2-yl-piperazin-1-yl)-ethyl]-1H-indol-6-yl]-benzenesulfonic acid amide]	82%
COc1cc(C)c(S(=O)(=O)Nc2cccc3ccn(CC(=O)N4CCN(c5ccc(F)cc5)CC4)c23)c(C)c1 [G_CC-5, N-[1-[2-[4-(4-fluorophenyl)-piperazin-1-yl]-2-oxo-ethyl]-1H-indol-7-yl]-4-methoxy-2,6-dimethyl-benzenesulfonic acid amide]	59%
COc1cc(C)c(S(=O)(=O)Nc2cccc3ccn(CC(=O)N4CCN(c5ncccn5)CC4)c23)c(C)c1 [G_CC-6, 4-Methoxy-2,6-dimethyl-N-[1-[2-oxo-2-(4-pyrimidin-2-yl-piperazin-1-yl)-ethyl]-1H-indol-7-yl]-benzenesulfonic acid amide]	73%
COc1cc(C)c(S(=O)(=O)Nc2ccc3ccn(CC(=O)NCC4CCN(c5ccncc5)CC4)c3c2)c(C)c1 [G_CC-9, 2-[6-[[(4-Methoxy-2,6-dimethyl-phenyl)sulfonyl]amino]-1H-indol-1-yl]-N-[(1-pyridin-4-yl-piperidin-4-yl)-methyl]-acetamide]	65%
COc1cc(C)c(S(=O)(=O)Nc2ccc3ccn(CC(=O)N4CCC5(CCN(Cc6ccccc6)C5)C4)c3c2)c(C)c1 (centres unmarked) [G_CC-10, N-[1-[2-(3-Benzyl-3,7-diazaspiro[4.4]nonan-7-yl)-2-oxo-ethyl]-1H-indol-6-yl]-4-methoxy-2,6-dimethyl-benzenesulfonic acid amide]	69%
COc1cc(C)c(S(=O)(=O)Nc2cccc3ccn(CC(=O)N4CCC5(CCN(Cc6ccccc6)C5)C4)c23)c(C)c1 (centres unmarked) [G_CC-13, N-[1-[2-(3-Benzyl-3,7-diazaspiro[4.4]nonan-7-yl)-2-oxo-ethyl]-1H-indol-7-yl]-4-methoxy-2,6-dimethyl-benzenesulfonic acid amide]	58%
Cc1cc(S(=O)(=O)Nc2ccc3ccn(CC(=O)N(C)CCCN4CCC(c5ccccc5)(N(C)C)CC4)c3c2)c(C)cc1Cl [G_CC-15, 2-[6-[[(4-Chloro-2,5-dimethyl-phenyl)sulfonyl]amino]-1H-indol-1-yl]-N-[3-(4-dimethylamino-4-phenyl-piperidin-1-yl)-propyl]-N-methyl-acetamide]	65%
CN(CCCN1CCC(c2ccccc2)(N(C)C)CC1)C(=O)Cn1ccc2cccc(NS(=O)(=O)c3cccc4ccccc34)c21 [G_CC-16, N-[3-(4-Dimethylamino-4-phenyl-piperidin-1-yl)-propyl]-N-methyl-2-[7-[(naphthalen-1-ylsulfonyl)amino]-1H-indol-1-yl]-acetamide]	67%
COc1cc(C)c(S(=O)(=O)Nc2cccc3ccn(CC(=O)NC4CCC(c5ccccc5)(N5CCC5)CC4)c23)c(C)c1 (centres unmarked) [G_CC-17, N-[4-(Azetidin-1-yl)-4-phenyl-cyclohexyl]-2-[7-[[(4-methoxy-2,6-dimethyl-phenyl)sulfonyl]amino]-1H-indol-1-yl]-acetamide]	52%
COc1cc(C)c(S(=O)(=O)Nc2cccc3ccn(CC(=O)N(C)CCCN4CCC(c5cccs5)(N(C)C)CC4)c23)c(C)c1 [G_CC-18, N-[3-(4-Dimethylamino-4-thiophen-2-yl-piperidin-1-yl)-propyl]-2-[7-[[(4-methoxy-2,6-dimethyl-phenyl)sulfonyl]amino]-1H-indol-1-yl]-N-methyl-acetamide]	87%
COc1cc(C)c(S(=O)(=O)Nc2cccc3ccn(CC(=O)N4CCC(c5cccs5)(N(C)C)CC4)c23)c(C)c1 [G_CC-20, N-[1-[2-(4-Dimethylamino-4-thiophen-2-yl-piperidin-1-yl)-2-oxo-ethyl]-1H-indol-7-yl]-4-methoxy-2,6-dimethyl-benzenesulfonic acid amide]	86%

Now from value to compound:

inhibition at 10 µM	SMILES
87%	COc1cc(C)c(S(=O)(=O)Nc2ccc3ccn(CC(=O)N(C)CCCN4CCC(c5ccccc5)(N(C)C)CC4)c3c2)c(C)c1 [G_CC-11, N-[3-(4-Dimethylamino-4-phenyl-piperidin-1-yl)-propyl]-2-[6-[[(4-methoxy-2,6-dimethyl-phenyl)sulfonyl]amino]-1H-indol-1-yl]-N-methyl-acetamide]
58%	COc1cc(C)c(S(=O)(=O)Nc2cccc3ccn(CC(=O)N4CCC5(CC4)CCN(c4ccc(F)cc4)C5=O)c23)c(C)c1 [G_CC-12, N-[1-[2-[3-(4-Fluorophenyl)-4-oxo-3,8-diazaspiro[4.5]decan-8-yl]-2-oxo-ethyl]-1H-indol-7-yl]-4-methoxy-2,6-dimethyl-benzenesulfonic acid amide]
86%	COc1cc(C)c(S(=O)(=O)Nc2cccc3ccn(CC(=O)N(C)CCCN4CCC(c5ccccc5)(N(C)C)CC4)c23)c(C)c1 [G_CC-14, N-[3-(4-Dimethylamino-4-phenyl-piperidin-1-yl)-propyl]-2-[7-[[(4-methoxy-2,6-dimethyl-phenyl)sulfonyl]amino]-1H-indol-1-yl]-N-methyl-acetamide]
68%	COc1cc(C)c(S(=O)(=O)Nc2cccc3ccn(CC(=O)NCCN4CCC(c5cccs5)(N(C)C)CC4)c23)c(C)c1 [G_CC-19, N-[2-(4-Dimethylamino-4-thiophen-2-yl-piperidin-1-yl)-ethyl]-2-[7-[[(4-methoxy-2,6-dimethyl-phenyl)sulfonyl]amino]-1H-indol-1-yl]-acetamide]
97%	COc1cc(C)c(S(=O)(=O)Nc2cccc3ccn(CC(=O)NCCC4CCN(c5ccncc5)CC4)c23)c(C)c1 [G_CC-21, 2-[7-[[(4-Methoxy-2,6-dimethyl-phenyl)sulfonyl]amino]-1H-indol-1-yl]-N-[2-(1-pyridin-4-yl-piperidin-4-yl)-ethyl]-acetamide]
